pIC50, pKi: −log10 of the molar value.
Experiments:
[1] = target: T1, Alpha-1D adrenergic receptor (Homo sapiens, UniProt P25100); format: cell membranes, HEK293, Membrane; details: hek293; further: in other assays of this panel Not Active means under 50% inhibition at 10 µM
T1 sequence (P25100 whole entry): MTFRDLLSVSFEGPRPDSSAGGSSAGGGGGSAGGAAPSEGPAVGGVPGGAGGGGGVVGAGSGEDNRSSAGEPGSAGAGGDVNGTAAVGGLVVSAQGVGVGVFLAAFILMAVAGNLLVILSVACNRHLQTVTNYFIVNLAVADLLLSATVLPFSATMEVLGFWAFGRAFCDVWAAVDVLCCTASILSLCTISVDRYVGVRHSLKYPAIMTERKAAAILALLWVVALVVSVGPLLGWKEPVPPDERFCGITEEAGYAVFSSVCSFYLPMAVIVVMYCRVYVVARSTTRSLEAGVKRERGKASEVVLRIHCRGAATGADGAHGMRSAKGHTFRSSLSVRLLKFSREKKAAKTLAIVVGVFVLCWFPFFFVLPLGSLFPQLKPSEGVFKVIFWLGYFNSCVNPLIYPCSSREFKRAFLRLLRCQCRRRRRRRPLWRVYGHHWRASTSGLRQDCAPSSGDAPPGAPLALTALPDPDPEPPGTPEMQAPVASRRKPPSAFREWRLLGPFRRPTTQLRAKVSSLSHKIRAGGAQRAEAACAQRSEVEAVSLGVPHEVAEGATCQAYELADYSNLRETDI

[2] = target: Beta-1 adrenergic receptor (Homo sapiens, UniProt P08588); test: DRUGMATRIX: Adrenergic beta1 radioligand binding (ligand: [125I] Cyanopindolol); format: cell membranes, CHO-K1, Membrane; details: cho-k1; Not Active = under 50% inhibition at 10 µM
[3] = target: Beta-3 adrenergic receptor (Homo sapiens, UniProt P13945); test: DRUGMATRIX: Adrenergic beta3 radioligand binding (ligand: [125I] Cyanopindolol); format: cell membranes, HEK293, Membrane; details: hek293; Not Active = under 50% inhibition at 10 µM
[4] = target: Aldo-keto reductase family 1 member B1 (Rattus norvegicus, UniProt P07943); format: tissue-based, Lens of camera-type eye;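 further: inhibition of aldose reductase enzyme activity, measured with DL-glyceraldehyde as the substrate; in other assays of this panel Not Active means under 50% inhibition at 10 µM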
[5] = DRUGMATRIX: Calcium Channel Type L, Benzothiazepine radioligand binding (ligand: [3H] Diltiazem); format: cell membranes, Rattus norvegicus, Wistar, Brain, Membrane; details: Not Active = under 50% inhibition at 10 µM
[6] = DRUGMATRIX: Serotonin (5-Hydroxytryptamine) 5-HT3 radioligand binding (ligand: [3H] GR-65630); format: cell membranes, Membrane; details: hek293; Not Active = under 50% inhibition at 10 µM
[7] = target: 5-hydroxytryptamine receptor 4 (Cavia porcellus, UniProt O70528); format: cell membranes, Dunkin-Hartley, Striatum, Membrane; further: in other assays of this panel Not Active means under 50% inhibition at 10 µM
[8] = target: Sigma non-opioid intracellular receptor 1 (Homo sapiens, UniProt Q99720); test: DRUGMATRIX: Sigma1 radioligand binding (ligand: [3H] Haloperidol); format: cell membranes, Jurkat, Membrane; details: jurkat; Not Active = under 50% inhibition at 10 µM
[9] = DRUGMATRIX: Tumor Necrosis Factor (TNF), Non-Selective radioligand binding (ligand: [125I] TNF-alpha); format: cell membranes, Membrane; details: u-937; Not Active = under 50% inhibition at 10 µM
[10] = DRUGMATRIX: Calcium Channel Type L, Phenylalkylamine radioligand binding (ligand: [3H] (-)-Desmethoxyverapamil (D-888)); format: cell membranes, Rattus norvegicus, Wistar, Brain, Membrane; details: Not Active = under 50% inhibition at 10 µM
[11] = target: T2, Cholecystokinin receptor type A (Homo sapiens, UniProt P32238); format: cell membranes, Membrane; details: 1321-n1; further: in other assays of this panel Not Active means under 50% inhibition at 10 µM
T2 sequence (P32238 whole entry): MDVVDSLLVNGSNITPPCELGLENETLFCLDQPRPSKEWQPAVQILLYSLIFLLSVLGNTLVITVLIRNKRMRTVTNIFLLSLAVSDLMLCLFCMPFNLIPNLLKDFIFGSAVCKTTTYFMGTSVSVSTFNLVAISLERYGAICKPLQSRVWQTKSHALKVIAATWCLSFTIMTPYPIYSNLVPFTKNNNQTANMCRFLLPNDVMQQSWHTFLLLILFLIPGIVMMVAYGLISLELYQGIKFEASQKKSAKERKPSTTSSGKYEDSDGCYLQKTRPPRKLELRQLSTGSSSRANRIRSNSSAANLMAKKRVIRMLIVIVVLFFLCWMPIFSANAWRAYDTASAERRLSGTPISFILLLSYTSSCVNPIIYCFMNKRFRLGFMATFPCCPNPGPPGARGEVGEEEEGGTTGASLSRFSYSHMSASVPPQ

[12] = DRUGMATRIX: GABAA, Muscimol, Central radioligand binding (ligand: [3H] Muscimol); format: cell membranes, Rattus norvegicus, Wistar, Brain, Membrane; details: Not Active = under 50% inhibition at 10 µM
[13] = DRUGMATRIX: GABAA, Flunitrazepam, Central radioligand binding (ligand: [3H] Flunitrazepam); format: cell membranes, Rattus norvegicus, Wistar, Brain, Membrane; details: Not Active = under 50% inhibition at 10 µM
[14] = DRUGMATRIX: Imidazoline I2, Central radioligand binding (ligand: [3H] Idazoxan); format: cell membranes, Rattus norvegicus, Wistar, Cerebral cortex, Membrane; details: Not Active = under 50% inhibition at 10 µM
Insulin receptor = Insulin receptor (Rattus norvegicus, UniProt P15127); format: cell membranes, Wistar, Liver, Membrane; further: in other assays of this panel Not Active means under 50% inhibition at 10 µM
Melanocortin receptor 4 = Melanocortin receptor 4 (Homo sapiens, UniProt P32245); format: cell membranes, Membrane; details: hek293; further: in other assays of this panel Not Active means under 50% inhibition at 10 µM
[15] = target: Kappa-type opioid receptor (Homo sapiens, UniProt P41145); test: DRUGMATRIX: Opiate kappa (OP2, KOP) radioligand binding (ligand: [3H] Diprenorphine); format: cell membranes, HEK293, Membrane; details: hek293; Not Active = under 50% inhibition at 10 µM
Mu-type opioid receptor = Mu-type opioid receptor (Homo sapiens, UniProt P35372); test: DRUGMATRIX: Opiate mu (OP3, MOP) radioligand binding (ligand: [3H] Diprenorphine); format: cell membranes, CHO-K1, Membrane; details: cho-k1; Not Active = under 50% inhibition at 10 µM
[16] = target: T3, 5-hydroxytryptamine receptor 1A (Rattus norvegicus, UniProt P19327); format: cell membranes, CHO-K1, Membrane; details: cho-k1; further: in other assays of this panel Not Active means under 50% inhibition at 10 µM
T3 sequence (P19327 whole entry): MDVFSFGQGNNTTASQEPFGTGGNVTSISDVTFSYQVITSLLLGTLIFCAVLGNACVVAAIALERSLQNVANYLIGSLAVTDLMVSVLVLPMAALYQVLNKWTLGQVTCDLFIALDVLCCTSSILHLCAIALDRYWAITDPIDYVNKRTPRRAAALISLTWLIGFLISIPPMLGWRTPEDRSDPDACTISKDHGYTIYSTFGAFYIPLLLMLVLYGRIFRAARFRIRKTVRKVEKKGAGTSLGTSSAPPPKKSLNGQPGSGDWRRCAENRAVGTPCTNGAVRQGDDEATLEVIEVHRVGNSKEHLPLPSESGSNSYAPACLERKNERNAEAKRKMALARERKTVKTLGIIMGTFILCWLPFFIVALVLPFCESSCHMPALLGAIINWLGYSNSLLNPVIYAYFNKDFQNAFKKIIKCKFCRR

[17] = target: 5-hydroxytryptamine receptor 1B (Rattus norvegicus, UniProt P28564); format: cell membranes, Wistar, Cerebral cortex, Membrane; further: in other assays of this panel Not Active means under 50% inhibition at 10 µM
Sequence of 5-hydroxytryptamine receptor 1B (P28564 whole entry): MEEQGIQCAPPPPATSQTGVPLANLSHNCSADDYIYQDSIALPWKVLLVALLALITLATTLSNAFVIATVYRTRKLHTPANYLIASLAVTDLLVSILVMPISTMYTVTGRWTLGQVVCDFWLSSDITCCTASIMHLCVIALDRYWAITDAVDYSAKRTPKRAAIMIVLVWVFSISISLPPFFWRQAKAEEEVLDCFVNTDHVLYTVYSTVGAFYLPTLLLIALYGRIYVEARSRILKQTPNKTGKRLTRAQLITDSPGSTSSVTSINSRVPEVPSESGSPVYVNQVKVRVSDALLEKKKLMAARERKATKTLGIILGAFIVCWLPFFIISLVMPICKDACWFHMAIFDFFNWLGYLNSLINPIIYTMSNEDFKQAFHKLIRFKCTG

Sequence of Beta-1 adrenergic receptor (P08588 whole entry): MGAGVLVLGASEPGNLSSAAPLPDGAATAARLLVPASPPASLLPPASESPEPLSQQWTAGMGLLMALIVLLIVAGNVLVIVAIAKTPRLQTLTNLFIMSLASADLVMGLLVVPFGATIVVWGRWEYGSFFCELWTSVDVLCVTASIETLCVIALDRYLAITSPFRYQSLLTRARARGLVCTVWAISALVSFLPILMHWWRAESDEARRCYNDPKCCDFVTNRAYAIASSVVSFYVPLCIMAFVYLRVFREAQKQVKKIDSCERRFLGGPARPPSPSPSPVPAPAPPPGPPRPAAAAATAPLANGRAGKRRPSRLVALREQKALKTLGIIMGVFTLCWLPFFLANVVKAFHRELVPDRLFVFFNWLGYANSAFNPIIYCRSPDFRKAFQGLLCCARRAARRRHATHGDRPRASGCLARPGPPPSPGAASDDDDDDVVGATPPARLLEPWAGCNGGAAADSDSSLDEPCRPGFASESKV
Sequence of 5-hydroxytryptamine receptor 4 (O70528 whole entry): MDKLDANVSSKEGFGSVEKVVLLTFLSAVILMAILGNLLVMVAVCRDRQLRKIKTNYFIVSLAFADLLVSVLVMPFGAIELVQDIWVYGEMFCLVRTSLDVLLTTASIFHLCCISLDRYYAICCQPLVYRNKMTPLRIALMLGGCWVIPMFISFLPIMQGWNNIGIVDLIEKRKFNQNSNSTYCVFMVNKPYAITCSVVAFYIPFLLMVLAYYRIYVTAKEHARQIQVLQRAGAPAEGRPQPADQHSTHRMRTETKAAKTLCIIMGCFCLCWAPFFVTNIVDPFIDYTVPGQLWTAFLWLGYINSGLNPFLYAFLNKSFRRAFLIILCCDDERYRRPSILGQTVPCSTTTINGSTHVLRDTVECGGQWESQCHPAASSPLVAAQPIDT
Sequence of Kappa-type opioid receptor (P41145 whole entry): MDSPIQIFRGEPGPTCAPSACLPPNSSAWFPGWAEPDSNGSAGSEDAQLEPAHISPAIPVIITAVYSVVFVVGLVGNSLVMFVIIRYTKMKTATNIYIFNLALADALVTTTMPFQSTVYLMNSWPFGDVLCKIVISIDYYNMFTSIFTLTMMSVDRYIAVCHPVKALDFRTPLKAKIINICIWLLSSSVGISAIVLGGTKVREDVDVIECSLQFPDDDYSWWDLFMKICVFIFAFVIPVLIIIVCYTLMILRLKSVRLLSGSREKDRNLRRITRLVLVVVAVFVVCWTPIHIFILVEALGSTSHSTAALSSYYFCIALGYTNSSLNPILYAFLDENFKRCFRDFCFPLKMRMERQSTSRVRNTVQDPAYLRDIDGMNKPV
Sequence of Melanocortin receptor 4 (P32245 whole entry): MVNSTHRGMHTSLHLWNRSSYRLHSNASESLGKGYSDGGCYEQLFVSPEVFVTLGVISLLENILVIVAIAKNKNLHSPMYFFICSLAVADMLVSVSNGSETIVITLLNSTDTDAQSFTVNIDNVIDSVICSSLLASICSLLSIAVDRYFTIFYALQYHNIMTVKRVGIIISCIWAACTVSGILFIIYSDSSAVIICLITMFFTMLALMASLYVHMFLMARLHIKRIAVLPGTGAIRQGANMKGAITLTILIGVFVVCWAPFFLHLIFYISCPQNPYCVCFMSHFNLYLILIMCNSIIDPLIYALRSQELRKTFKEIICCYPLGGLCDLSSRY
Sequence of Mu-type opioid receptor (P35372 whole entry): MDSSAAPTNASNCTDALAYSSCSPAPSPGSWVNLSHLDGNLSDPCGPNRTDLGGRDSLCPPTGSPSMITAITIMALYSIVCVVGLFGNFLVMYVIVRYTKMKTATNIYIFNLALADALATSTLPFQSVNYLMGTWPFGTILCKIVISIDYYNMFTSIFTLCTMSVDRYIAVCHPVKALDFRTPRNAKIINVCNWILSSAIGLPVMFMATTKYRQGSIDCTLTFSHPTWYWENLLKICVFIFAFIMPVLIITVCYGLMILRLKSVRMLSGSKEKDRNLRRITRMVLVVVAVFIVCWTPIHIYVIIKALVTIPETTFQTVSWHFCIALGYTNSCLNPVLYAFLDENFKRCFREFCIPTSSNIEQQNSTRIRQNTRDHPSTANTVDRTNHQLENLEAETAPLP
Sequence of Insulin receptor (P15127 27-759 limits assumed): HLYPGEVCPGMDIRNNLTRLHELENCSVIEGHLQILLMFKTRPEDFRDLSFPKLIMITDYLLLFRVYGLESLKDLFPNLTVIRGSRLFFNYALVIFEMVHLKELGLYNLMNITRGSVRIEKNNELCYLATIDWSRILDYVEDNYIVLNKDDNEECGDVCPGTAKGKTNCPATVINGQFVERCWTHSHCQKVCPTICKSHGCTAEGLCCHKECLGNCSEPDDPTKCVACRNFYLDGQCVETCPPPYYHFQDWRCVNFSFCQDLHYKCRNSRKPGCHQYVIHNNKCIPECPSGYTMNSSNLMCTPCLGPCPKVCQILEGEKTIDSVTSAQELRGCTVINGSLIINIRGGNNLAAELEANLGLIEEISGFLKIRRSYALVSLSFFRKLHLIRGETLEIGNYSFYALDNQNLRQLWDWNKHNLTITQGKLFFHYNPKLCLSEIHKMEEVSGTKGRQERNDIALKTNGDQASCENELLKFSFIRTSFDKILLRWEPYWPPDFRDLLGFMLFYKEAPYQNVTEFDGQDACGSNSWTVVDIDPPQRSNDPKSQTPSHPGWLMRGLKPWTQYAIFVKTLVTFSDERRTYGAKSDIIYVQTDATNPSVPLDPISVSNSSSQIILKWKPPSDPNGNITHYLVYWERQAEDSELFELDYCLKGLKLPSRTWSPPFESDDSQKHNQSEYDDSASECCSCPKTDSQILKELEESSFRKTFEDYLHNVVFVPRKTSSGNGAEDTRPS
Sequence of Insulin receptor (P15127 764-1383 limits assumed): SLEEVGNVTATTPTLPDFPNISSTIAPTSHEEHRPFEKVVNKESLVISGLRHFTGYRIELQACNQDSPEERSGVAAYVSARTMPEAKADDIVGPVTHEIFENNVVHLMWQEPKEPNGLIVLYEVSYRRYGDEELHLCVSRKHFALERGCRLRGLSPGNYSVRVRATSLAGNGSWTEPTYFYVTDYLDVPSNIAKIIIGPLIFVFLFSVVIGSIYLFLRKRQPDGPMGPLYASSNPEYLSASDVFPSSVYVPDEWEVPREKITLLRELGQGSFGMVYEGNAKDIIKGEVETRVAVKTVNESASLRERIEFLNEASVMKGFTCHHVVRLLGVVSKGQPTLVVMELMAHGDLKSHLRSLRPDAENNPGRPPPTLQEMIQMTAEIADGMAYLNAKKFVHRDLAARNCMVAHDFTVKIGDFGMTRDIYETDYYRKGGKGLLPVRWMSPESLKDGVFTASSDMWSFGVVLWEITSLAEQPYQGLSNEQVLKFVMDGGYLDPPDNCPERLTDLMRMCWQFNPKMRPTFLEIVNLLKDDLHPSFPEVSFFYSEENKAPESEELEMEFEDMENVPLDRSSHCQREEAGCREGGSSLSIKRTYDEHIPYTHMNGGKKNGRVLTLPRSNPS
Sequence of Sigma non-opioid intracellular receptor 1 (Q99720 whole entry): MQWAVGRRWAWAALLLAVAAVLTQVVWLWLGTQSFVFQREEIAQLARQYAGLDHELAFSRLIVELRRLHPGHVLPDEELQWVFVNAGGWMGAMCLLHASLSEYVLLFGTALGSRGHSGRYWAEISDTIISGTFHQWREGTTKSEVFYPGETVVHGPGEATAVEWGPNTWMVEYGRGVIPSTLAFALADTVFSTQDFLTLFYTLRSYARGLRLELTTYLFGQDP
Sequence of Beta-3 adrenergic receptor (P13945 whole entry): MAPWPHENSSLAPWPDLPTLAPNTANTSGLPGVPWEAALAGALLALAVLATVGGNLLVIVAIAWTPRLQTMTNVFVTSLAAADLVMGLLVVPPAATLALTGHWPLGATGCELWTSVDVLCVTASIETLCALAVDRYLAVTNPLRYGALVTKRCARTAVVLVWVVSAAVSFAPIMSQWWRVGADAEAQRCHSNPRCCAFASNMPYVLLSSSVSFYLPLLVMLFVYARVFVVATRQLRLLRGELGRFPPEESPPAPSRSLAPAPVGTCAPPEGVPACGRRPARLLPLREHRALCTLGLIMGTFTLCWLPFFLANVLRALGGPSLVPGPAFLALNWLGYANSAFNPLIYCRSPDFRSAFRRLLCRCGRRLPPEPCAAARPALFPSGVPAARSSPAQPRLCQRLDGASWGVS

CCC[C@@H]1C[C@@H](C(=O)N[C@@H]([C@H]2O[C@H](SC)[C@H](O)[C@@H](O)[C@H]2O)[C@@H](C)O)N(C)C1 [LINCOMYCIN]
IC50 [1]: Not Active
IC50 [2]: Not Active
IC50 [3]: Not Active
IC50 [4]: Not Active
IC50 [5]: Not Active
Ki [5]: Not Active
IC50 [6]: Not Active
Ki [6]: Not Active
IC50 [7]: Not Active
IC50 [8]: Not Active
IC50 [9]: Not Active
Ki [9]: Not Active
IC50 [10]: Not Active
Ki [10]: Not Active
IC50 [11]: Not Active
IC50 [12]: Not Active
Ki [12]: Not Active
IC50 [13]: Not Active
Ki [13]: Not Active
IC50 [14]: Not Active
Ki [14]: Not Active
IC50 (Insulin receptor): Not Active
IC50 (Melanocortin receptor 4): Not Active
IC50 [15]: Not Active
IC50 (Mu-type opioid receptor): Not Active
IC50 [16]: Not Active
IC50 [17]: Not Active

NC(CO)(CO)CO [TROMETHAMINE]
IC50 [1]: Not Active
IC50 [2]: Not Active
IC50 [3]: Not Active
IC50 [4]: Not Active
IC50 [5]: Not Active
Ki [5]: Not Active
IC50 [6]: Not Active
Ki [6]: Not Active
IC50 [7]: Not Active
IC50 [8]: Not Active
IC50 [9]: Not Active
Ki [9]: Not Active
IC50 [10]: Not Active
Ki [10]: Not Active
IC50 [11]: Not Active
IC50 [12]: Not Active
Ki [12]: Not Active
IC50 [13]: Not Active
Ki [13]: Not Active
IC50 [14]: Not Active
Ki [14]: Not Active
IC50 (Insulin receptor): Not Active
IC50 (Melanocortin receptor 4): Not Active
IC50 [15]: Not Active
IC50 (Mu-type opioid receptor): Not Active
IC50 [16]: Not Active
IC50 [17]: Not Active

COC(=O)C1=C(C)NC(C)=C(C(=O)OC)C1c1ccccc1[N+](=O)[O-] [NIFEDIPINE]
IC50 [1]: Not Active
IC50 [2]: Not Active
IC50 [3]: Not Active
IC50 [4]: Not Active
pIC50 ([5]; read-out: IC50): 8.06
pKi ([5]; read-out: Ki): 8.11
IC50 [6]: Not Active
Ki [6]: Not Active
IC50 [7]: Not Active
IC50 [8]: Not Active
IC50 [9]: Not Active
Ki [9]: Not Active
pIC50 ([10]; read-out: IC50): 6.06
pKi ([10]; read-out: Ki): 6.07
IC50 [11]: Not Active
IC50 [12]: Not Active
Ki [12]: Not Active
IC50 [13]: Not Active
Ki [13]: Not Active
IC50 [14]: Not Active
Ki [14]: Not Active
IC50 (Insulin receptor): Not Active
IC50 (Melanocortin receptor 4): Not Active
IC50 [15]: Not Active
IC50 (Mu-type opioid receptor): Not Active
IC50 [16]: Not Active
IC50 [17]: Not Active

CC[C@H]1OC(=O)[C@H](C)[C@@H](O[C@H]2C[C@@](C)(OC)[C@@H](O)[C@H](C)O2)[C@H](C)[C@@H](O[C@@H]2O[C@H](C)C[C@H](N(C)C)[C@H]2O)[C@](C)(O)C[C@@H](C)/C(=N\OCOCCOC)[C@H](C)[C@@H](O)[C@]1(C)O [ROXITHROMYCIN]
IC50 [1]: Not Active
IC50 [2]: Not Active
IC50 [3]: Not Active
IC50 [4]: Not Active
IC50 [5]: Not Active
Ki [5]: Not Active
IC50 [6]: Not Active
Ki [6]: Not Active
IC50 [7]: Not Active
IC50 [8]: Not Active
IC50 [9]: Not Active
Ki [9]: Not Active
IC50 [10]: Not Active
Ki [10]: Not Active
IC50 [11]: Not Active
IC50 [12]: Not Active
Ki [12]: Not Active
IC50 [13]: Not Active
Ki [13]: Not Active
IC50 [14]: Not Active
Ki [14]: Not Active
IC50 (Insulin receptor): Not Active
IC50 (Melanocortin receptor 4): Not Active
IC50 [15]: Not Active
IC50 (Mu-type opioid receptor): Not Active
IC50 [16]: Not Active
IC50 [17]: Not Active

CC(C)[C@H](N)C(=O)OCCOCn1cnc2c(=O)nc(N)[nH]c21 [VALACYCLOVIR]
IC50 [1]: Not Active
IC50 [2]: Not Active
IC50 [3]: Not Active
IC50 [4]: Not Active
IC50 [5]: Not Active
Ki [5]: Not Active
IC50 [6]: Not Active
Ki [6]: Not Active
IC50 [7]: Not Active
IC50 [8]: Not Active
IC50 [9]: Not Active
Ki [9]: Not Active
IC50 [10]: Not Active
Ki [10]: Not Active
IC50 [11]: Not Active
IC50 [12]: Not Active
Ki [12]: Not Active
IC50 [13]: Not Active
Ki [13]: Not Active
IC50 [14]: Not Active
Ki [14]: Not Active
IC50 (Insulin receptor): Not Active
IC50 (Melanocortin receptor 4): Not Active
IC50 [15]: Not Active
IC50 (Mu-type opioid receptor): Not Active
IC50 [16]: Not Active
IC50 [17]: Not Active

NC(=O)c1ncn([C@@H]2O[C@H](CO)[C@@H](O)[C@H]2O)n1 [RIBAVIRIN]
IC50 [1]: Not Active
IC50 [2]: Not Active
IC50 [3]: Not Active
IC50 [4]: Not Active
IC50 [5]: Not Active
Ki [5]: Not Active
IC50 [6]: Not Active
Ki [6]: Not Active
IC50 [7]: Not Active
IC50 [8]: Not Active
IC50 [9]: Not Active
Ki [9]: Not Active
IC50 [10]: Not Active
Ki [10]: Not Active
IC50 [11]: Not Active
IC50 [12]: Not Active
Ki [12]: Not Active
IC50 [13]: Not Active
Ki [13]: Not Active
IC50 [14]: Not Active
Ki [14]: Not Active
IC50 (Insulin receptor): Not Active
IC50 (Melanocortin receptor 4): Not Active
IC50 [15]: Not Active
IC50 (Mu-type opioid receptor): Not Active
IC50 [16]: Not Active
IC50 [17]: Not Active
